{"source": "patent US8563258B2", "about": "“Allergy test based on flow cytometric analysis” (Buhlmann Laboratories AG, priority 2007, dated 2013)", "key": {"basophils [1]": {"tested_on": "basophils", "description": "Peripheral blood leukocytes are isolated from patients' whole blood samples and primed with Stimulation Buffer containing interleukin 3 (IL-3). […] During this activation intracellular compounds containing the transmembrane protein CD63 are fused to the cellular membrane and therefore exposed to the extracellular matrix.\nA highly specific monoclonal antibody (mAb) recognizing the high affinity IgE binding receptor (FcεRI) is used as a positive control, leading to the activation of the basophils by mimicking the bridging event.\nAfter stopping the reaction the Staining Reagent is added containing a mixture of monoclonal antibodies to human CD63 labeled with phycoerythrin (anti-CD63-PE) and to human IgE labeled with fluorescein isothiocyanate (anti-IgE-FITC). The remaining erythrocytes are removed by a lysing reaction and after blocking the reaction the cells are analyzed by flow cytometry.\nMix the anti-coagulated blood sample by inverting the venipuncture tube several times. Centrifuge the venipuncture tube for 5 minutes at 200×g. After the centrifugation step, two phases can be observed from top to the bottom of the tube: • i) plasma fraction containing the leukocytes • ii) erythrocyte fraction • Alternative procedure for cell separation: • Mix the anti-coagulated blood sample by inverting the venipuncture tube several times. • Let the samples sediment (erythrocytes) at room temperature for one hour. Collect the upper phase (plasma fraction containing the leukocytes) and continue with step 2. • If the erythrocytes sedimentation is not complete after one hour of incubation, the centrifugation step above is recommended. • 2. Collect the plasma fraction with the leukocytes on the top of the erythrocytes with a disposable plastic syringe or plastic pipette and transfer it into a fresh and pyrogen-free 5 ml polypropylene or polystyrene tube. • NOTE: Because of the low amount of basophils in the leukocyte fraction it is important to collect the entire plasma fraction. […] Centrifuge for 10 minutes at 500×g. Completely remove the plasma fraction on the top of the cell pellet with a pipette. • 4. Add 100 μl of Stimulation Buffer per ml of blood used at the beginning (i.e. for 5 ml blood sample used, the pellet has to be solved with 500 μl of Stimulation Buffer). Resuspend the leukocytes pellet carefully. • 5a. For each patient, label pyrogen-free polystyrene tubes suited for Flow Cytometry measurements (e.g., PB=patient background=negative control, PC=stimulation control with anti-FcεRI Ab, A1-1 for antigen 1 with dilution 1, A1-2 for allergen 1 with dilution 2, etc.) or use tissue culture grade microtiter plates. • 5b. Pipet 50 μl of Stimulation Buffer (background 0 negative control) into the PB tube of each patient. • 5c. Pipet 50 μl of Stimulation Control into the PC tube of each patient. • 5d. Pipet 50 μl of Allergen (=test substance) into the corresponding patient tubes. • 6. Pipet 50 μl of each patient's cell suspension into the corresponding tubes. • 7. Vortex gently, cover the tubes and incubate for 40±5 minutes at 37° C. in a water bath. • 8. Add 50 μl of cold Blocking Buffer to each tube. • 9. Add 20 μl of cold Staining Reagent to each tube. Vortex gently. • 10. Incubate for 30±5 minutes at 2-8° C. • 11. Vortex gently the sedimented cells, add 3.5 ml of pre-warmed (18-28° C.) Lysing Reagent to each tube and incubate for 5±1 minutes at 18-28° C. • 12. Stop the reaction with 1 ml of Blocking Buffer. • 13. Centrifuge for 5 minutes at 1000-1200×g. • 14. Decant or aspirate the supernatant and resuspend the cell pellet with 500 μl of Blocking Buffer. Vortex gently. • 15. Proceed to the analysis by Flow Cytometry within 2 hours.\nFlow cytometric analysis can be performed on any flow cytometer containing a 488 nm argon laser (blue-green excitation light) and the corresponding software."}, "basophilic cells": {"tested_on": "basophilic cells", "details": "for MFI-CCR3 shift (cytotoxic concentration): human", "text": "In Protocol 1 anti-IgE-FITC is used as the basophil selection marker, whereas in Protocol 2 anti-CCR3-PE is used."}, "blood basophils": {"tested_on": "blood basophils", "details": "21 normal blood donors", "method": "Therefore, we established two protocols, one with diluted whole blood, wherein the EDTA blood sample is diluted 1 in 4 with cellular incubation buffer (the Stimulation Buffer) and another with purified blood, wherein the basophils were transferred from its plasma matrix to a plasma-free matrix such as the cellular incubation buffer by centrifuging and washing the blood cells."}, "basophils [2]": {"tested_on": "basophils", "test": "Alternative use of FcεRI instead of IgE as basophil selection/activation marker (Example 7)", "format": "cell-based, human", "details": "for MFI Activation Index (anti-FcεRI-AF647 and anti-IgE-AF647): Amoxicillin allergic patient"}}, "note": "Where two headings read alike, the source gives them in different places.", "data": [{"smiles": "CC(C)Cc1ccc(C(C)C(=O)O)cc1", "note": "(stereo not shown) [Ibuprofen]", "values": [{"measurement": "combined MFI-IgE/CD63 Activation Index", "setting": "basophils [1]; Patient 8", "result": "positive results"}, {"measurement": "CD63 expression", "setting": "basophils [1]; Patient 9", "result": "clearcut reaction"}, {"measurement": "combined MFI-IgE/CD63 Activation Index", "setting": "basophils [1]; Patient 9", "result": "clearcut reaction"}]}, {"smiles": "O=C(O)Cc1ccccc1Nc1c(Cl)cccc1Cl", "note": "[Diclofenac]", "values": [{"measurement": "CD63 expression", "setting": "basophils [1]; Patient 9", "result": "clearcut reaction"}, {"measurement": "combined MFI-IgE/CD63 Activation Index", "setting": "basophils [1]; Patient 9", "result": "clearcut reaction"}]}, {"smiles": "CC(=O)Oc1ccccc1C(=O)O", "note": "[Aspirin]", "values": [{"measurement": "combined MFI-IgE/CD63 Activation Index", "setting": "basophils [1]; Patient 8", "result": "positive results"}, {"measurement": "CD63 expression", "setting": "basophils [1]; Patient 9", "result": "clearcut reaction"}, {"measurement": "combined MFI-IgE/CD63 Activation Index", "setting": "basophils [1]; Patient 9", "result": "clearcut reaction"}, {"measurement": "MFI-CCR3 shift (cytotoxic concentration)", "setting": "basophilic cells; 5 mg/ml", "result": "clearcut downregulation of MFI-CCR3"}]}, {"smiles": "COc1ccc2cc([C@H](C)C(=O)O)ccc2c1", "note": "[Naproxen]", "values": [{"measurement": "unspecific stimulatory effects on basophils", "setting": "blood basophils; 1 mg/ml, washed blood cells", "result": "unspecific stimulatory effects"}, {"measurement": "cytotoxic effects on blood basophils", "setting": "blood basophils; 5 mg/ml, all blood preparation methods", "result": "cytotoxic effects"}, {"measurement": "MFI-CCR3 shift (cytotoxic concentration)", "setting": "basophilic cells; 1 mg/ml", "result": "clearcut downregulation of MFI-CCR3"}, {"measurement": "MFI-CCR3 shift (cytotoxic concentration)", "setting": "basophilic cells; 5 mg/ml", "result": "clearcut downregulation of MFI-CCR3"}]}, {"smiles": "CC1(C)S[C@@H]2[C@H](NC(=O)[C@H](N)c3ccc(O)cc3)C(=O)N2[C@H]1C(=O)O", "note": "[Amoxicillin]", "values": [{"measurement": "result of all methods tested (CD63 expression, combined Activation Index, spIgE, skin test)", "setting": "basophils [1]; Patient 4 (control subject)", "result": "negative result"}, {"measurement": "combined MFI-IgE/CD63 Activation Index", "setting": "basophils [1]; Patient 5", "result": "positive result"}, {"measurement": "CD63 expression", "setting": "basophils [1]; Patient 5, cutoff 5% plus SI≧2", "result": "negative"}, {"measurement": "MFI Activation Index (anti-FcεRI-AF647 and anti-IgE-AF647)", "setting": "basophils [2]; 0.04 mg/ml (C3)", "result": "negative"}, {"measurement": "MFI Activation Index (anti-FcεRI-AF647 and anti-IgE-AF647)", "setting": "basophils [2]; 0.2 mg/ml (C2)", "result": "intermediate"}, {"measurement": "MFI Activation Index (anti-FcεRI-AF647 and anti-IgE-AF647)", "setting": "basophils [2]; 1 mg/ml (C1)", "result": "strong activation"}, {"measurement": "CCR3 positive cells after stimulation", "setting": "basophilic cells; 2 mg/ml, CCR3 selection marker", "result": "can still be easily identified"}, {"measurement": "IgE positive basophilic cells after stimulation", "setting": "basophilic cells; 2 mg/ml, IgE selection marker", "result": "disappearing"}]}, {"smiles": "CSCC[C@H](NC=O)C(=O)N[C@@H](CC(C)C)C(=O)N[C@@H](Cc1ccccc1)C(=O)O", "note": "[fMLP, N-formyl-L-methionyl-L-leucyl-L-phenylalanine]", "values": [{"measurement": "stimulation yield as alternative positive control", "setting": "basophils [2]; compared with anti-FcεRI mAb", "result": "lower stimulation yields than anti-FcεRI mAb"}]}]}
